Source: US9738634B2, “Heterocyclic amide compound and herbicide” (SYNGENTA PARTICIPATIONS AG, priority 2013, dated 2017)

Assays:
Type in all cases: in vivo
Conditions in all cases: treatment dosage 320 g/ha
bulrush [1] = assay: Test Example 1: weedkilling efficacy, preemergent weed treatment in the submerged state; B: bulrush
How it was run: (§1)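 Visual scores against set criteria were taken 3 weeks after treatment. Compounds, as diluted emulsions at specified g/ha, went onto the water surface of 4 cm-flooded alluvial soil pots on the day weeds were sown and 2.5-leaf rice was transplanted; greenhouse held 25–30 °C.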

crabgrass [2] = assay: Test Example 3: weedkilling efficacy through soil treatment; D: crabgrass
How it was run: (§2)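 Crop and weed responses were judged three weeks after a uniform surface spray of the water-diluted emulsion at the given g/ha rate. Seeds sat beneath about 1.5 cm of sterilized diluvial soil, and boxes stood in a greenhouse at 25 to 30° C.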

chickweed [3] = assay: Test Example 3: weedkilling efficacy through soil treatment; N: chickweed
How it was run: as §2

black-grass [4] = assay: Test Example 4: weedkilling efficacy by foliar treatment; H: black-grass
How it was run: (§3)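 Seeds are spot-sown into sterilized diluvial soil and covered with about 1.5 cm of soil. After 14 days' greenhouse growth at 25 to 30° C, plants are sprayed on stems and leaves with diluted emulsion at the stated g/ha rate, then scored at 3 weeks.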

transplanted rice = assay: Test Example 1: preemergent weed treatment in the submerged state, effect on crop; a: transplanted rice
How it was run: as §1

barnyard grass [5] = assay: Test Example 2: weedkilling efficacy, growth period weed treatment in the submerged state; A: barnyard grass
How it was run: (§4)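 Barnyard grass, bulrush and oval-leafed pondweed sown in alluvial soil under 4 cm flooding, greenhouse 25 to 30° C. At 1-2 leaf stage, water-diluted emulsion applied to the water surface at stated g/ha dosages; effects scored 3 weeks later.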

common wind-grass [6] = assay: Test Example 4: weedkilling efficacy by foliar treatment; J: common wind-grass
How it was run: as §3

common wind-grass [7] = assay: Test Example 3: weedkilling efficacy through soil treatment; J: common wind-grass
How it was run: as §2

directly sown rice [8] = assay: Test Example 3: soil treatment, effect on crop; b: directly sown rice
How it was run: as §2

black-grass [9] = assay: Test Example 3: weedkilling efficacy through soil treatment; H: black-grass
How it was run: as §2

fig-leafed goosefoot [10] = assay: Test Example 4: weedkilling efficacy by foliar treatment; M: fig-leafed goosefoot
How it was run: as §3

crabgrass [11] = assay: Test Example 4: weedkilling efficacy by foliar treatment; D: crabgrass
How it was run: as §3

oval-leafed pondweed [12] = assay: Test Example 1: weedkilling efficacy, preemergent weed treatment in the submerged state; C: oval-leafed pondweed
How it was run: as §1

bulrush [13] = assay: Test Example 2: weedkilling efficacy, growth period weed treatment in the submerged state; B: bulrush
How it was run: as §4

corn [14] = assay: Test Example 3: soil treatment, effect on crop; c: corn
How it was run: as §2

corn [15] = assay: Test Example 4: foliar treatment, effect on crop; c: corn
How it was run: as §3

rapeseed [16] = assay: Test Example 3: soil treatment, effect on crop; g: rapeseed
How it was run: as §2

Italian ryegrass [17] = assay: Test Example 4: weedkilling efficacy by foliar treatment; I: Italian ryegrass
How it was run: as §3

barnyard grass [18] = assay: Test Example 4: weedkilling efficacy by foliar treatment; F: barnyard grass
How it was run: as §3

wheat [19] = assay: Test Example 4: foliar treatment, effect on crop; e: wheat
How it was run: as §3

Indian mallow [20] = assay: Test Example 3: weedkilling efficacy through soil treatment; K: Indian mallow
How it was run: as §2

rapeseed [21] = assay: Test Example 4: foliar treatment, effect on crop; g: rapeseed
How it was run: as §3

soybean [22] = assay: Test Example 4: foliar treatment, effect on crop; d: soybean
How it was run: as §3

beet [23] = assay: Test Example 3: soil treatment, effect on crop; f: beet
How it was run: as §2

Italian ryegrass [24] = assay: Test Example 3: weedkilling efficacy through soil treatment; I: Italian ryegrass
How it was run: as §2

redroot pigweed [25] = assay: Test Example 4: weedkilling efficacy by foliar treatment; L: redroot pigweed
How it was run: as §3

fig-leafed goosefoot [26] = assay: Test Example 3: weedkilling efficacy through soil treatment; M: fig-leafed goosefoot
How it was run: as §2

redroot pigweed [27] = assay: Test Example 3: weedkilling efficacy through soil treatment; L: redroot pigweed
How it was run: as §2

green foxtail [28] = assay: Test Example 3: weedkilling efficacy through soil treatment; E: green foxtail
How it was run: as §2

Indian mallow [29] = assay: Test Example 4: weedkilling efficacy by foliar treatment; K: Indian mallow
How it was run: as §3

green foxtail [30] = assay: Test Example 4: weedkilling efficacy by foliar treatment; E: green foxtail
How it was run: as §3

chickweed [31] = assay: Test Example 4: weedkilling efficacy by foliar treatment; N: chickweed
How it was run: as §3

catchweed [32] = assay: Test Example 4: weedkilling efficacy by foliar treatment; O: catchweed
How it was run: as §3

wheat [33] = assay: Test Example 3: soil treatment, effect on crop; e: wheat
How it was run: as §2

wild oat [34] = assay: Test Example 3: weedkilling efficacy through soil treatment; G: wild oat
How it was run: as §2

catchweed [35] = assay: Test Example 3: weedkilling efficacy through soil treatment; O: catchweed
How it was run: as §2

wild oat [36] = assay: Test Example 4: weedkilling efficacy by foliar treatment; G: wild oat
How it was run: as §3

oval-leafed pondweed [37] = assay: Test Example 2: weedkilling efficacy, growth period weed treatment in the submerged state; C: oval-leafed pondweed
How it was run: as §4

birds-eye speedwell = assay: Test Example 3: weedkilling efficacy through soil treatment; p: birds-eye speedwell
How it was run: as §2

soybean [38] = assay: Test Example 3: soil treatment, effect on crop; d: soybean
How it was run: as §2

beet [39] = assay: Test Example 4: foliar treatment, effect on crop; f: beet
How it was run: as §3

barnyard grass [40] = assay: Test Example 3: weedkilling efficacy through soil treatment; F: barnyard grass
How it was run: as §2

directly sown rice [41] = assay: Test Example 4: foliar treatment, effect on crop; b: directly sown rice
How it was run: as §3

barnyard grass [42] = assay: Test Example 1: weedkilling efficacy, preemergent weed treatment in the submerged state; A: barnyard grass
How it was run: as §1

CC1=C(c2ccccc2)C(=O)N(C(C)(C)C(=O)Nc2ncccc2F)CO1 [B-2-24]
B (bulrush) weedkilling efficacy grade (bulrush [1]): 5 (weed kill ratio 90% or more, (practically complete withering))
D (crabgrass) weedkilling efficacy grade (crabgrass [2]): 3 (weed kill ratio 40% or more, less than 70%)
N (chickweed) weedkilling efficacy grade (chickweed [3]): 3 (weed kill ratio 40% or more, less than 70%)
H (black-grass) weedkilling efficacy grade (black-grass [4]): 0 (weed kill ratio 5% or less (practically no effect))
a (transplanted rice) effect on crop grade (transplanted rice): 0 (weed kill ratio 5% or less (practically no effect))
A (barnyard grass) weedkilling efficacy grade (barnyard grass [5]): 1 (weed kill ratio 5% or more, less than 20%)
J (common wind-grass) weedkilling efficacy grade (common wind-grass [6]): 1 (weed kill ratio 5% or more, less than 20%)
J (common wind-grass) weedkilling efficacy grade (common wind-grass [7]): 3 (weed kill ratio 40% or more, less than 70%)
b (directly sown rice) effect on crop grade (directly sown rice [8]): 0 (weed kill ratio 5% or less (practically no effect))
H (black-grass) weedkilling efficacy grade (black-grass [9]): 0 (weed kill ratio 5% or less (practically no effect))
M (fig-leafed goosefoot) weedkilling efficacy grade (fig-leafed goosefoot [10]): 4 (weed kill ratio 70% or more, less than 90%)
D (crabgrass) weedkilling efficacy grade (crabgrass [11]): 0 (weed kill ratio 5% or less (practically no effect))
C (oval-leafed pondweed) weedkilling efficacy grade (oval-leafed pondweed [12]): 3 (weed kill ratio 40% or more, less than 70%)
B (bulrush) weedkilling efficacy grade (bulrush [13]): 4 (weed kill ratio 70% or more, less than 90%)
c (corn) effect on crop grade (corn [14]): 0 (weed kill ratio 5% or less (practically no effect))
c (corn) effect on crop grade (corn [15]): 0 (weed kill ratio 5% or less (practically no effect))
g (rapeseed) effect on crop grade (rapeseed [16]): 0 (weed kill ratio 5% or less (practically no effect))
I (Italian ryegrass) weedkilling efficacy grade (Italian ryegrass [17]): 0 (weed kill ratio 5% or less (practically no effect))
F (barnyard grass) weedkilling efficacy grade (barnyard grass [18]): 0 (weed kill ratio 5% or less (practically no effect))
e (wheat) effect on crop grade (wheat [19]): 0 (weed kill ratio 5% or less (practically no effect))
K (Indian mallow) weedkilling efficacy grade (Indian mallow [20]): 0 (weed kill ratio 5% or less (practically no effect))
g (rapeseed) effect on crop grade (rapeseed [21]): 0 (weed kill ratio 5% or less (practically no effect))
d (soybean) effect on crop grade (soybean [22]): 0 (weed kill ratio 5% or less (practically no effect))
f (beet) effect on crop grade (beet [23]): 0 (weed kill ratio 5% or less (practically no effect))
I (Italian ryegrass) weedkilling efficacy grade (Italian ryegrass [24]): 0 (weed kill ratio 5% or less (practically no effect))
L (redroot pigweed) weedkilling efficacy grade (redroot pigweed [25]): 0 (weed kill ratio 5% or less (practically no effect))
M (fig-leafed goosefoot) weedkilling efficacy grade (fig-leafed goosefoot [26]): 0 (weed kill ratio 5% or less (practically no effect))
L (redroot pigweed) weedkilling efficacy grade (redroot pigweed [27]): 0 (weed kill ratio 5% or less (practically no effect))
E (green foxtail) weedkilling efficacy grade (green foxtail [28]): 3 (weed kill ratio 40% or more, less than 70%)
K (Indian mallow) weedkilling efficacy grade (Indian mallow [29]): 0 (weed kill ratio 5% or less (practically no effect))
E (green foxtail) weedkilling efficacy grade (green foxtail [30]): 1 (weed kill ratio 5% or more, less than 20%)
N (chickweed) weedkilling efficacy grade (chickweed [31]): 2 (weed kill ratio 20% or more, less than 40%)
O (catchweed) weedkilling efficacy grade (catchweed [32]): 3 (weed kill ratio 40% or more, less than 70%)
e (wheat) effect on crop grade (wheat [33]): 0 (weed kill ratio 5% or less (practically no effect))
G (wild oat) weedkilling efficacy grade (wild oat [34]): 0 (weed kill ratio 5% or less (practically no effect))
O (catchweed) weedkilling efficacy grade (catchweed [35]): 0 (weed kill ratio 5% or less (practically no effect))
G (wild oat) weedkilling efficacy grade (wild oat [36]): 0 (weed kill ratio 5% or less (practically no effect))
C (oval-leafed pondweed) weedkilling efficacy grade (oval-leafed pondweed [37]): 3 (weed kill ratio 40% or more, less than 70%)
P (birds-eye speedwell) weedkilling efficacy grade (birds-eye speedwell): 0 (weed kill ratio 5% or less (practically no effect))
d (soybean) effect on crop grade (soybean [38]): 0 (weed kill ratio 5% or less (practically no effect))
f (beet) effect on crop grade (beet [39]): 0 (weed kill ratio 5% or less (practically no effect))
F (barnyard grass) weedkilling efficacy grade (barnyard grass [40]): 3 (weed kill ratio 40% or more, less than 70%)
b (directly sown rice) effect on crop grade (directly sown rice [41]): 0 (weed kill ratio 5% or less (practically no effect))
A (barnyard grass) weedkilling efficacy grade (barnyard grass [42]): 2 (weed kill ratio 20% or more, less than 40%)
